This data set is described as follows: Solubility of guanidine compounds in water, OECD Guideline 105 flask method. The class given is physicochemical.

This is an account of results in patent publication US20140017893A1, “CMP POLISHING LIQUID AND METHOD FOR POLISHING SUBSTRATE USING THE SAME” (Hitachi Chemical Company, Ltd., priority 2007, published 2014).

≈ marks a conversion by molar mass, not a printed value.

In the case of `N=C(N)NN` [aminoguanidine], under “water, thermodynamic from solid”, the concentration in solution (solubility) was 50 mM (≈ 3700 µg/mL).
Regarding `Cc1ccccc1NC(=N)NC(=N)N` [o-Tolylbiguanide], the Solubility in water is 15 mM (≈ 2870 µg/mL).
